Reference: US12440466B2, “Fatty acid derivatives for treating non-alcoholic steatohepatitis” (BASF AS, priority 2017, dated 2025)
Marks after values point to notes of the source that are not given here.

Experiments:
[1] = tested on: genes regulating extracellular matrix (ECM) stability or fibrolysis; assay: Hepatic ECM stability/fibrolysis gene expression by RNA sequencing in ob/ob AMLN mice; format: in vivo, mouse; conditions: 4 weeks, Compound A 112 mg/kg, pioglitazone 30 mg/kg
Description: (§1) Obese diet-induced B6.V-Lepob/Jrj mice (ob/ob) are consistently fibrosis (liver) prone when cholesterol (2%), 40% fat (containing 18% trans-fatty acids) and 20% fructose are added to a high-caloric diet (i.e., AMLN high-fat diet). ob/ob mice on AMLN diet (termed ‘ob/ob AMLN mice’) develop steatohepatitis and fibrosis within a shorter timeframe ([…]) compared with wild-type C57BL/6 mice (AMLN mice) fed the same diet. ob/ob AMLN mice provide an obese diet-induced model of NASH that also allows the study of effects on glycemic control. Development of NASH in the ob/ob AMLN model is confirmed by biopsy.
(§2) In Biological Examples 10-12, 15, and 19, studies were performed in male ob/ob mice (5 weeks old) fed an AMLN high-fat diet for 15 weeks, then randomized into 3 groups (n=10 per group) to receive either 112 mg/kg bw per day of Compound A via diet, 30 mg/kg bw per day pioglitazone via diet or no treatment (vehicle) for a further 4 weeks. An oral glucose tolerance test (OGTT) was performed at week 3. Hepatic fibrosis was assessed via measurements of hepatic fibrogenic/fibrolytic gene expression by RNA sequencing at 4 weeks.

[2] = Body weight, liver weight and food intake in ob/ob AMLN mice; format: in vivo, mouse
Description: as §1, §2
(§3) In Biological Examples 10, 13-14, and 16-18, studies were performed in male ob/ob mice (5 weeks old) fed an AMLN high-fat diet for 18 weeks, then randomized into 6 groups (n=10 per group) to receive either Compound A (at 3 different daily doses, 45 mg/kg, 90 mg/kg or 135 mg/kg) via diet, 30 mg/kg bw per day obeticholic acid (OCA) via diet, or no treatment (vehicle) for a further 8 weeks. Assessment of NASH related parameters and fibrosis was made at study end by quantitative immune histochemistry (IHC) measurements.

col1A1 = assay: Hepatic col1A1 content by quantitative IHC in ob/ob AMLN mice; format: in vivo, mouse; conditions: 8 weeks
Description: as §1, §3

CDAA/high-fat fed mice [3] = assay: Hepatic lipidomic analysis, CDAA/high-fat diet mouse model; format: in vivo; conditions: Compound A 112 mg/kg bw per day or equimolar EPA, orally
Description: (§4) In Biological Examples 1-7, studies were performed in male C56BL/6J mice (9 weeks old). Mice were fed either choline-sufficient (CS) or choline deficient high-fat diets (31% total calories; “CDAA/high-fat”). The NASH inducing diet was instigated 6 weeks prior to the commencement of treatment in order to design the study as a treatment/reversal set-up rather than prophylaxis.
In Biological Example 7, after 6 weeks of either the CS or CDAA/high-fat diet, mice were administered 112 mg/kg bw per day of Compound A, or an equimolar dose of eicosapentaenoic acid (EPA), delivered orally. Hepatic lipidomic analysis was performed in isolated liver samples from CS (n=9), Compound A (n=9) and EPA (n=8) groups.
To further understand the effects of Compound A on hepatic lipid metabolism, lipidomic analysis of CS- and CDAA/high-fat fed mice (“CD”) was performed in isolated liver tissue.

inflammatory genes = assay: Hepatic inflammatory gene expression in ob/ob AMLN mice; format: in vivo, mouse; conditions: 4 weeks, Compound A 112 mg/kg
Description: as §1, §2

CDAA/high-fat fed mice [4] = assay: Hepatic hydroxyproline (HYP) content, CDAA/high-fat diet induced NASH mouse model; format: in vivo
Source text: Mouse models that are deficient in methionine and/choline (MCD and CDAA respectively) are well established for studying the development and treatment of NASH in pre-clinical drug development. As precursors for the synthesis of phosphatidylcholine, a dietary deficiency of methionine/choline leads to an inability to synthesize hepatic lipoproteins for the export of triglyceride that results in severe hepatic steatosis, inflammation and fibrosis.
Although the widely used methionine-choline deficient (MCD) diet consistently reproduces severe NASH-like hepatic inflammation and fibrosis in mice, it is also associated with severe weight-loss (loss of both skeletal muscle and fat mass). This is associated with an increased risk of death which presents major problems for long-term fibrogenesis experiments.
as §4
In Biological Examples 1-5, mice were divided into 6 experimental groups (n=9 per group) and fed either CS or CDAA/high-fat diets. After 6 weeks of either the CS- or CDAA diet, mice were orally administered Compound A or comparison Compound N, both at 2 doses, 0.15 mmol/kg bw/day (low-dose, LD) and 0.3 mmol/kg bw per day (high-dose, HD). The test substances were administered orally as admix to the high-fat diet. Hepatic fibrosis was assessed by both measurement of hydroxyproline (HYP) content and Sirius Red (SR) morphometry. Fibrosis, inflammation and metabolism related transcripts levels were measured by quantitative real-time polymerase chain reaction (qPCR).

[5] = tested on: canonical genes regulating hepatic fibrogenesis; assay: Hepatic fibrogenic gene expression by RNA sequencing in ob/ob AMLN mice; format: in vivo, mouse; conditions: 4 weeks, Compound A 112 mg/kg, pioglitazone 30 mg/kg
Description: as §1, §2

CDAA/high-fat fed mice [6] = assay: Hepatic collagen fiber number, thickness and length by nonlinear multiphoton optical imaging, CDAA/high-fat diet mouse model; format: in vivo; conditions: Compound A 56 mg/kg bw per day orally
Description: Mice were fed either choline-sufficient (CS) or choline deficient high-fat diets (31% total calories; “CDAA/high-fat”). The NASH inducing diet was instigated 6 weeks prior to the commencement of treatment in order to design the study as a treatment/reversal set-up rather than prophylaxis.
In Biological Examples 6 and 7, mice were fed either CS or CDAA/high-fat diets as described above. […] The effect on hepatic collagen fiber number, thickness, and length was determined via nonlinear multiphoton optical imaging system in isolated liver samples from vehicle control (n=8), Compound A (n=9) and GLP-1R (n=8) fed groups.

ob/ob AMLN mice = assay: Hepatic steatosis and hepatic cholesterol content in ob/ob AMLN mice; format: in vivo, mouse; conditions: 8 weeks, Compound A 45-135 mg/kg, OCA 30 mg/kg
Description: as §1, §3

[7] = 8 weeks, Compound A 45, 90 and 135 mg/kg, OCA 30 mg/kg bw per day
[8] = pioglitazone 30 mg/kg, data not shown
[9] = pioglitazone 30 mg/kg, vs vehicle

CC/C=C\C/C=C\C/C=C\C/C=C\C/C=C\CCCCOC(CC)C(=O)O (stereo not shown) [Compound A, 2-((5Z,8Z,11Z,14Z,17Z)-icosa-5,8,11,14,17-pentaenyloxy)butanoic acid]
hepatic expression of LOX-like 2 (LOXL2) [1]: significantly reduced
hepatic expression of LOXL1 [1]: significantly reduced
hepatic expression of TIMP1 [1]: significantly reduced
hepatic expression of lysyl-oxidase (LOX) [1]: significantly reduced
body weight ([2]; 4 weeks, Compound A 112 mg/kg): no effect
body weight [2, 7]: neither Compound A (45 mg/kg, 90 mg/kg, and 135 mg/kg) nor OCA significantly affected body weight
food intake [2, 7]: not affected
col1A1 content compared with pre-biopsy content (col1A1; Compound A 45 mg/kg): trend towards decreased col1A1 content
col1A1 levels as a percentage of total surface area (col1A1; Compound A 45 mg/kg): not statistically significant
col1A1 levels as a percentage of total surface area (col1A1; Compound A 90 mg/kg): significant reduction
total col1A1 content (col1A1; Compound A 90 mg/kg): reduced
col1A1 content compared with pre-biopsy content (col1A1; Compound A 90 mg/kg, decrease, p<0.005): statistically significant
col1A1 content compared with pre-biopsy content (col1A1; Compound A 135 mg/kg): trend towards decreased col1A1 content
col1A1 levels as a percentage of total surface area (col1A1; Compound A 135 mg/kg): not statistically significant
total col1A1 content (col1A1; Compound A 135 mg/kg): reduced
hepatic cholesteryl ester (CDAA/high-fat fed mice [3]): significantly reduced
hepatic diglycerides (DG) (CDAA/high-fat fed mice [3]): significantly reduced
hepatic free fatty acids (FFA) (CDAA/high-fat fed mice [3]): significantly reduced
hepatic triglyceride (TG) (CDAA/high-fat fed mice [3]): significantly reduced
MAC-2 expression (inflammatory genes; data not shown): Significant reductions
MCP-1 transcript levels (inflammatory genes; [8]): Neither compound significantly reduced
interleukin (IL)-1β transcript levels (inflammatory genes; [8]): Neither compound significantly reduced
CCR2 expression (inflammatory genes; [9]): Significant reductions
CD14 expression (inflammatory genes; [9]): Significant reductions
CD68 expression (inflammatory genes; [9]): Significant reductions
transcript levels of TGF-β1 (inflammatory genes; [9]): reduced
transcript levels of TGF-β1 receptor (TGFRβ) (inflammatory genes; [9]): reduced
Galectin-3 (Gal-3) levels (inflammatory genes; vs vehicle): significantly reduced
Hydroxyproline (μg) content per 100 mg liver (CDAA/high-fat fed mice [4]; HD 0.3 mmol/kg bw per day orally as admix to diet): 37 μg HYP/per 100 mg liver
Hydroxyproline (μg) content per 100 mg liver (CDAA/high-fat fed mice [4]; LD 0.15 mmol/kg bw/day orally as admix to diet): 38 μg HYP/per 100 mg liver
Hydroxyproline (μg) content per liver (CDAA/high-fat fed mice [4]; high dose (HD) 0.3 mmol/kg bw per day orally as admix to diet): 750** μg
Hydroxyproline (μg) content per liver (CDAA/high-fat fed mice [4]; low dose (LD) 0.15 mmol/kg bw/day orally as admix to diet): 800* μg
hepatic HSP47 expression [5]: significantly reduced
hepatic PDGF-β expression [5]: significantly reduced
hepatic PDGFR-β expression [5]: significantly reduced
hepatic col1A1 expression [5]: significantly reduced
hepatic col3A1 expression [5]: significantly reduced
hepatic col4A1 expression [5]: significantly reduced
collagen fiber length (CDAA/high-fat fed mice [6]): slight increases
collagen fiber thickness (CDAA/high-fat fed mice [6]): slight increases
short (<8.5 μm) and thin (<3.5 μm) collagen fibers (CDAA/high-fat fed mice [6]): almost complete disappearance
reduction of collagen fiber numbers (CDAA/high-fat fed mice [6]; p=0.01): 51%
steatosis (percent area or total lipid content) (ob/ob AMLN mice): significantly reduced
